# Patent US11793815B2, “Oxindoles and methods of use thereof” (ALIGOS THERAPEUTICS, INC., priority 2020, dated 2023)
# Molecular target: T1, human thyroid receptor beta ligand-binding domain (LBD) (Homo sapiens, UniProt P10828)
# T1 construct: Thyroid receptor beta LBD was added to the plate at a final concentration of 1 nM; purchased Invitrogen
# T1 sequence (P10828 217-461 limits assumed): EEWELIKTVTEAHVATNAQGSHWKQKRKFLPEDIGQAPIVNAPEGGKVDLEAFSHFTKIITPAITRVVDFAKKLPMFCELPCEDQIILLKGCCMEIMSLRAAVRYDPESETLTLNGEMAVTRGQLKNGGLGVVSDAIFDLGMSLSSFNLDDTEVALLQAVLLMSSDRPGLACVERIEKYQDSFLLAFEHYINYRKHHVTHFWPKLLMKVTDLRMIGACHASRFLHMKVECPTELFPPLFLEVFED
# Test: THR Biochemical Assay (Assay 1): TR-FRET thyroid receptor beta coactivator assay
# Details: GST-tagged thyroid receptor beta LBD 1 nM, fluorescein SRC2-2 coactivator peptide 200 nM, 1 hr at rt, TR-FRET ratio 520:495; read-out: Assay 1 (EC50, THR-beta agonist)
# Source text: THR Biochemical Assay (Assay 1)
# The TR-FRET thyroid receptor beta coactivator assay was used with slight, optimized modifications of the manufacturer's protocol (Invitrogen). The assay uses a terbium-labeled anti-GST antibody, a glutathione-S-transferase (GST) tagged human thyroid receptor, beta or alpha, ligand-binding domain (LBD), and a fluorescein labeled SRC2-2 coactivator peptide. The antibody interacts with the LBD, where the agonist also binds, resulting in increased affinity for the SRC2-2 coactivator peptide causing energy transfer […] the acceptor fluorophore and a FRET emission shift from 495 to 520 nm. The energy transfer was detected as an increase in the fluorescence emission of the fluorescein acceptor, and a decrease in the fluorescence emission of the terbium donor. The assay was performed in a 384-well black plate in a final volume of 20 μL. Serial dilution of various test agonists was performed in DMSO (1% final DMSO concentration) and added to the test plate. Thyroid receptor beta LBD was added to the plate at a final concentration of 1 nM, followed by the mixture of the fluorescein labeled SRC2-2 coactivator peptide, and the terbium-labeled anti-GST antibody at final concentrations of 200 nM and 2 nM respectively. The assay was incubated for 1 hr at rt protected from light. The TR-FRET was then measured on a Victor multilabel reader (Perkin Elmer) using an excitation wavelength of 340 nm with emission filters of 495 nm and 520 nm. The assay was quantified by expressing a ratio (520:495) of the intensities, and the resulting activation curves; EC50 values were generated using a sigmoidal dose response (variable slope) equation in GraphPad™ Prism 8.0.
row,EC50,SMILES
1,< 50 nM,"CC1CC12C(=O)Nc1ccc(Oc3c(Cl)cc(-n4nc(N)c(=O)[nH]c4=O)cc3Cl)cc12 (single isomer, unassigned) [Compound 32, 6-amino-2-(3,5-dichloro-4-((2-methyl-2′-oxospiro[cyclopropane-1,3′-indolin]-5′-yl)oxy)phenyl)-1,2,4-triazine-3,5(2H,4H)-dione]"
2,< 50 nM,"CC1CC12C(=O)Nc1ccc(Oc3c(Cl)cc(NC(=O)C(=O)O)cc3Cl)cc12 (single isomer, unassigned) [Compound 34, 2-((3,5-dichloro-4-((2-methyl-2′-oxospiro[cyclopropane-1,3′-indolin]-5′-yl)oxy)phenyl)amino)-2-oxoacetic acid]"
3,< 50 nM,"CC1CC12C(=O)Nc1ccc(Oc3c(Cl)cc(NC(=O)C(=O)O)cc3Cl)cc12 (single isomer, unassigned) [Compound 35, 2-((3,5-dichloro-4-((2-methyl-2′-oxospiro[cyclopropane-1,3′-indolin]-5′-yl)oxy)phenyl)amino)-2-oxoacetic acid]"
4,50 to 250 nM,"Cc1cc(OCC(=O)O)c(C)c(C)c1Cc1ccc2c(n1)C(C)(C)C(=O)N2 [Compound 1, 4-([3,3-dimethyl-2-oxo-1H-pyrrolo[3,2-b]pyridin-5-yl]methyl)-2,3,5-trimethylphenoxyacetic acid]"
5,< 50 nM,"Cc1cc(-n2nc(C#N)c(=O)[nH]c2=O)cc(C)c1Oc1ccc2c(c1)C1(CC1)C(=O)N2 [Compound 2, 2-(3,5-dimethyl-4-((2′-oxospiro[cyclopropane-1,3′-indolin]-5′-yl)oxy)phenyl)-3,5-dioxo-2,3,4,5-tetrahydro-1,2,4-triazine-6-carbonitrile]"
6,< 50 nM,"Cc1cc(-n2nc(C#N)c(=O)[nH]c2=O)cc(C)c1Oc1ccc2c(c1)C1(CCC1)C(=O)N2 [Compound 3, 2-(3,5-dimethyl-4-((2′-oxospiro[cyclobutane-1,3′-indolin]-5′-yl)oxy)phenyl)-3,5-dioxo-2,3,4,5-tetrahydro-1,2,4-triazine-6-carbonitrile]"
7,< 50 nM,"Cc1cc(-n2nc(N)c(=O)[nH]c2=O)cc(C)c1Cc1ccc2c(c1)C1(CCC1)C(=O)N2 [Compound 4, 6-amino-2-(3,5-dimethyl-4-{2′-oxo-1′H-spiro[cyclobutane-1,3′-indol]-5′-ylmethyl}phenyl)-4H-1,2,4-triazine-3,5-dione]"
8,< 50 nM,"O=C1Nc2ccc(Oc3c(Cl)cc(-n4ncc(=O)[nH]c4=O)cc3Cl)cc2C12CCC2 [Compound 5, 2-(3,5-dichloro-4-((2′-oxospiro[cyclobutane-1,3′-indolin]-5′-yl)oxy)phenyl)-1,2,4-triazine-3,5(2H,4H)-dione]"
9,< 50 nM,"Nc1nn(-c2cc(Cl)c(Oc3ccc4c(c3)C3(CCC3)C(=O)N4)c(Cl)c2)c(=O)[nH]c1=O [Compound 6, 6-amino-2-(3,5-dichloro-4-((2′-oxospiro[cyclobutane-1,3′-indolin]-5′-yl)oxy)phenyl)-1,2,4-triazine-3,5(2H,4H)-dione]"
10,> 25000 nM,"Cc1cc(-n2nc(C#N)c(=O)[nH]c2=O)cc(C)c1Cc1ccc2c(c1)C1(CC(F)(F)C1)C(=O)N2 [Compound 7, 2-(4-((3,3-difluoro-2′-oxospiro[cyclobutane-1,3′-indolin]-5′-yl)methyl)-3,5-dimethylphenyl)-3,5-dioxo-2,3,4,5-tetrahydro-1,2,4-triazine-6-carbonitrile]"
11,> 25000 nM,"Cc1cc(-n2nc(N)c(=O)[nH]c2=O)cc(C)c1Cc1ccc2c(c1)C1(CC(F)(F)C1)C(=O)N2 [Compound 8, 6-amino-2-(4-{3,3-difluoro-2′-oxo-1′H-spiro[cyclobutane-1,3′-indol]-5′-ylmethyl}-3,5-dimethylphenyl)-4H-1,2,4-triazine-3,5-dione]"
12,< 50 nM,"N#Cc1nn(-c2cc(Cl)c(Oc3ccc4c(c3)C3(CC(F)(F)C3)C(=O)N4)c(Cl)c2)c(=O)[nH]c1=O [Compound 9, 2-(3,5-dichloro-4-((3,3-difluoro-2′-oxospiro[cyclobutane-1,3′-indolin]-5′-yl)oxy)phenyl)-3,5-dioxo-2,3,4,5-tetrahydro-1,2,4-triazine-6-carbonitrile]"
13,50 to 250 nM,"Nc1nn(-c2cc(Cl)c(Oc3ccc4c(c3)C3(CC(F)(F)C3)C(=O)N4)c(Cl)c2)c(=O)[nH]c1=O [Compound 11, 6-amino-2-(3,5-dichloro-4-((3,3-difluoro-2′-oxospiro[cyclobutane-1,3′-indolin]-5′-yl)oxy)phenyl)-1,2,4-triazine-3,5(2H,4H)-dione]"
14,50 to 250 nM,"Cc1cc(-n2nc(N)c(=O)[nH]c2=O)cc(C)c1Cc1ccc2c(n1)C(C)(C)C(=O)N2 [Compound 12, 6-amino-2-[4-({3,3-dimethyl-2-oxo-1H-pyrrolo[3,2-b]pyridin-5-yl}methyl)-3,5-dimethylphenyl]-4H-1,2,4-triazine-3,5-dione]"
15,< 50 nM,"O=C(O)C(=O)Nc1cc(Cl)c(Oc2ccc3c(c2)C2(CCC2)C(=O)N3)c(Cl)c1 [Compound 13, 2-((3,5-dichloro-4-((2′-oxospiro[cyclobutane-1,3′-indolin]-5′-yl)oxy)phenyl)amino)-2-oxoacetic acid]"
16,< 50 nM,"O=C(Nc1cc(Cl)c(Oc2ccc3c(c2)C2(CCC2)C(=O)N3)c(Cl)c1)c1noc(=O)[nH]1 [Compound 14, N-(3,5-dichloro-4-((2′-oxospiro[cyclobutane-1,3′-indolin]-5′-yl)oxy)phenyl)-5-oxo-4,5-dihydro-1,2,4-oxadiazole-3-carboxamide]"
17,< 50 nM,"O=C1Nc2ccc(Oc3c(Cl)cc(-c4n[nH]c(=O)[nH]c4=O)cc3Cl)cc2C12CCC2 [Compound 15, 6-(3,5-dichloro-4-((2′-oxospiro[cyclobutane-1,3′-indolin]-5′-yl)oxy)phenyl)-1,2,4-triazine-3,5(2H,4H)-dione]"
18,< 50 nM,"Cn1nc(-c2cc(Cl)c(Oc3ccc4c(c3)C3(CCC3)C(=O)N4)c(Cl)c2)c(=O)[nH]c1=O [Compound 16, 6-(3,5-dichloro-4-((2′-oxospiro[cyclobutane-1,3′-indolin]-5′-yl)oxy)phenyl)-2-methyl-1,2,4-triazine-3,5(2H,4H)-dione]"
19,< 50 nM,"Nc1nn(-c2cc(Cl)c(Oc3ccc4c(c3F)C3(CCC3)C(=O)N4)c(Cl)c2)c(=O)[nH]c1=O [Compound 17, 6-amino-2-(3,5-dichloro-4-((4′-fluoro-2′-oxospiro[cyclobutane-1,3′-indolin]-5′-yl)oxy)phenyl)-1,2,4-triazine-3,5(2H,4H)-dione]"
20,< 50 nM,"Cc1c(Oc2c(Cl)cc(-n3nc(N)c(=O)[nH]c3=O)cc2Cl)ccc2c1C1(CCC1)C(=O)N2 [Compound 18, 6-amino-2-(3,5-dichloro-4-((4′-methyl-2′-oxospiro[cyclobutane-1,3′-indolin]-5′-yl)oxy)phenyl)-1,2,4-triazine-3,5(2H,4H)-dione]"
21,> 25000 nM,"Cc1cc2c(cc1Oc1c(Cl)cc(-n3nc(N)c(=O)[nH]c3=O)cc1Cl)C1(CCC1)C(=O)N2 [Compound 19, 6-amino-2-(3,5-dichloro-4-((6′-methyl-2′-oxospiro[cyclobutane-1,3′-indolin]-5′-yl)oxy)phenyl)-1,2,4-triazine-3,5(2H,4H)-dione]"
22,< 50 nM,"Cc1cc(OCC(=O)O)c(C)c(C)c1Cc1ccc2c(c1)C1(CC1)C(=O)N2 [Compound 20, 2-(2,3,5-trimethyl-4-((2′-oxospiro[cyclopropane-1,3′-indolin]-5′-yl)methyl)phenoxy)acetic acid]"
23,< 50 nM,"Nc1nn(-c2cc(Cl)c(Oc3cc(F)c4c(c3)C3(CCC3)C(=O)N4)c(Cl)c2)c(=O)[nH]c1=O [Compound 21, 6-amino-2-(3,5-dichloro-4-((7′-fluoro-2′-oxospiro[cyclobutane-1,3′-indolin]-5′-yl)oxy)phenyl)-1,2,4-triazine-3,5(2H,4H)-dione]"
24,< 50 nM,"O=C(Nc1cc(Cl)c(Oc2ccc3c(c2)C2(CC2)C(=O)N3)c(Cl)c1)c1noc(=O)[nH]1 [Compound 22, N-(3,5-dichloro-4-((2′-oxospiro[cyclopropane-1,3′-indolin]-5′-yl)oxy)phenyl)-5-oxo-4,5-dihydro-1,2,4-oxadiazole-3-carboxamide]"
25,< 50 nM,"Cc1c(Oc2c(Cl)cc(NC(=O)c3noc(=O)[nH]3)cc2Cl)ccc2c1C1(CC1)C(=O)N2 [Compound 23, N-(3,5-dichloro-4-((4′-methyl-2′-oxospiro[cyclopropane-1,3′-indolin]-5′-yl)oxy)phenyl)-5-oxo-4,5-dihydro-1,2,4-oxadiazole-3-carboxamide]"
26,< 50 nM,"Cc1cc(-n2nc(N)c(=O)[nH]c2=O)cc(C)c1Oc1ccc2c(c1)C1(CCC1)C(=O)N2 [Compound 24, 6-amino-2-(3,5-dimethyl-4-((2′-oxospiro[cyclobutane-1,3′-indolin]-5′-yl)oxy)phenyl)-1,2,4-triazine-3,5(2H,4H)-dione]"
